Assay results reported in ChEMBL document CHEMBL4196088, “Induction of cell killing and autophagy by amphiphilic pyrrolidine derivatives on human pancreatic cancer cells” (Eur J Med Chem, 2018).
Each block holds one compound with its values, some of them ahead of it.

Legend:
[1] = test system: HeLa; experiment: Growth inhibition of human HeLa cells after 72 hrs; format: functional, cell-based
[2] = test system: PANC-1; experiment: Growth inhibition of human PANC1 cells after 72 hrs by XTT assay; format: functional, cell-based; conditions: PANC-1, 72 h
[3] = test system: BXPC-3; experiment: Growth inhibition of human BxPC3 cells after 72 hrs by XTT assay; format: functional, cell-based; conditions: BXPC-3, 72 h
[4] = test system: PANC-1; experiment: Induction of apoptosis in human PANC1 cells assessed as accumulation at sub-G0/G1 phase at 20 uM after 24 hrs by propidium iodide staining based flow cytometry (reference value: 0.6 to 0.7%); format: functional
[5] = test system: PANC-1; experiment: Induction of apoptosis in human PANC1 cells assessed as accumulation at sub-G0/G1 phase at 20 uM after 72 hrs by propidium iodide staining based flow cytometry (reference value: 1.6 to 3.2%); format: functional
[6] = test system: PANC-1; experiment: Induction of apoptosis in human PANC1 cells assessed as accumulation at sub-G0/G1 phase at 20 uM after 48 hrs by propidium iodide staining based flow cytometry (reference value: 0.2 to 2.9%); format: functional
[7] = test system: PK9; experiment: Growth inhibition of human PK9 cells after 72 hrs by MTT assay; format: functional, cell-based; conditions: PK9, 72 h
[8] = test system: PANC-1; experiment: Induction of apoptosis in human PANC1 cells assessed as accumulation at sub-G0/G1 phase at 10 uM after 48 hrs by propidium iodide staining based flow cytometry (reference value: 0.2 to 2.9%); format: functional
[9] = test system: PANC-1; experiment: Induction of apoptosis in human PANC1 cells assessed as accumulation at sub-G0/G1 phase at 10 uM after 72 hrs by propidium iodide staining based flow cytometry (reference value: 1.6 to 3.2%); format: functional
[10] = test system: MIA PaCa-2; experiment: Growth inhibition of human MIAPaCa2 cells after 72 hrs by MTT assay; format: functional, cell-based; conditions: MIA PaCa-2, 72 h
[11] = test system: PANC-1; experiment: Induction of apoptosis in human PANC1 cells assessed as accumulation at sub-G0/G1 phase at 10 uM after 24 hrs by propidium iodide staining based flow cytometry (reference value: 0.6 to 0.7%); format: functional

SMILES: CCCCCCCC/C=C/CCCCCCCCOC[C@@H]1C[C@@H](O)CN1C(=O)OC(C)(C)C
- IC50 [1]: 29.5 µM

SMILES: C(=C\c1ccc(-c2ccccc2)cc1)/CCCCCCOC[C@@H]1CCCN1.Cl
- Activity [4]: 2.3%
- Activity [5]: 4.3%
- Activity [6]: 2.1%
- IC50 [7]: 3.2 µM
- Activity [8]: 1.6%
- Activity [9]: 4.7%
- IC50 [10]: 2.9 µM
- IC50 [2]: 5.3 µM
- IC50 [3]: 5.7 µM
- Activity [11]: 0.9%

SMILES: CCCCCCCC/C=C\CCCCCCCCOC[C@@H]1C[C@@H](O)CN1C(=O)OC(C)(C)C
- IC50 [1]: 40 µM

SMILES: CCCCCCCC/C=C/CCCCCCCCOC[C@@H]1CCCN1C(=O)OC(C)(C)C
- IC50 [7]: > 100 µM
- IC50 [10]: > 100 µM
- IC50 [2]: > 100 µM
- IC50 [3]: > 100 µM

SMILES: CCCCCCCC/C=C\CCCCCCCCOC[C@@H]1C[C@@H](O)CN1
- IC50 [1]: 3.9 µM

SMILES: C=CCCCCCCOC[C@@H]1C[C@@H](O)CN1C(=O)OC(C)(C)C
- IC50 [1]: 23 µM

SMILES: CC(C)(C)OC(=O)N1C[C@H](O)C[C@H]1COCCCCCC/C=C/c1ccc(-c2ccccc2)cc1
- IC50 [1]: 38.5 µM

SMILES: C=CCCCCCCOC[C@@H]1CCCN1
- IC50 [7]: 57.7 µM
- IC50 [10]: 72.9 µM
- IC50 [2]: > 100 µM
- IC50 [3]: > 100 µM

SMILES: C=CCCCCCCCCCOC[C@@H]1C[C@@H](O)CN1C(=O)OC(C)(C)C
- IC50 [1]: 39 µM

SMILES: C=CCCCCCCCCCOC[C@@H]1CCCN1[S+]([O-])c1ccc(C)cc1 (some centres undefined)
- IC50 [2]: 56.7 µM
- IC50 [3]: 50 µM

SMILES: CCCCCCCC/C=C/CCCCCCCCOC[C@@H]1C[C@@H](O)CN1
- IC50 [1]: 4 µM

SMILES: CCCCCCCC/C=C\CCCCCCCCOC[C@@H]1CCCN1[S+]([O-])c1ccc(C)cc1 (some centres undefined)
- IC50 [2]: > 100 µM
- IC50 [3]: > 100 µM

SMILES: O[C@H]1CN[C@H](COCCCCCCCC/C=C/c2ccc(-c3ccccc3)cc2)C1
- IC50 [1]: 3.9 µM

SMILES: Cc1ccc([S+]([O-])N2CCC[C@H]2COCCCCCC/C=C/c2ccc(-c3ccccc3)cc2)cc1 (some centres undefined)
- IC50 [2]: ≥ 100 µM
- IC50 [3]: ≥ 100 µM

SMILES: C=CCCCCCCOC[C@@H]1C[C@@H](O)CN1
- IC50 [1]: > 100 µM

SMILES: C=CCCCCCCOC[C@@H]1CCCN1[S+]([O-])c1ccc(C)cc1 (some centres undefined)
- IC50 [2]: 53.3 µM
- IC50 [3]: 50 µM

SMILES: C=CCCCCCCCCCOC[C@@H]1CCCN1C(=O)OC(C)(C)C
- IC50 [7]: > 100 µM
- IC50 [10]: 50.3 µM
- IC50 [2]: ≥ 100 µM
- IC50 [3]: 50 µM

SMILES: Cc1ccc([S+]([O-])N2CCC[C@H]2COCCCCCCCCC/C=C/c2ccc(-c3ccccc3)cc2)cc1 (some centres undefined)
- IC50 [2]: > 100 µM
- IC50 [3]: > 100 µM

SMILES: C=CCCCCCCCCCOC[C@@H]1C[C@@H](O)CN1
- IC50 [1]: 39 µM

SMILES: CC(C)(C)OC(=O)N1C[C@H](O)C[C@H]1COCCCCCCCC/C=C/c1ccc(-c2ccccc2)cc1
- IC50 [1]: 37.5 µM

SMILES: CCCCCCCC/C=C\CCCCCCCCOC[C@@H]1CCCN1C(=O)OC(C)(C)C
- IC50 [7]: > 100 µM
- IC50 [10]: > 100 µM
- IC50 [2]: 80 µM
- IC50 [3]: > 100 µM

SMILES: C=CCCCCCCCCCOC[C@@H]1CCCN1
- IC50 [7]: 18.9 µM
- IC50 [10]: 17.1 µM
- IC50 [2]: 50 µM
- IC50 [3]: 6.3 µM

SMILES: CCCCCCCC/C=C\CCCCCCCCOC[C@@H]1CCCN1C(=O)[C@@H]1CCCN1C(=O)OC(C)(C)C
- IC50 [2]: > 100 µM
- IC50 [3]: > 100 µM

SMILES: C=CCCCCCCOC[C@@H]1CCCN1C(=O)OC(C)(C)C
- IC50 [7]: 57.1 µM
- IC50 [10]: 47.1 µM
- IC50 [2]: 56.7 µM
- IC50 [3]: 53.3 µM

Continued, in another order:

- IC50 [2]: 50 µM
- IC50 [3]: 53.3 µM
SMILES: O=CN1CCC[C@H]1COCCCCCC/C=C/c1ccc(-c2ccccc2)cc1

- IC50 [2]: 70 µM
- IC50 [3]: 56.7 µM
SMILES: CC(=O)N1CCC[C@H]1COCCCCCCCCC/C=C/c1ccc(-c2ccccc2)cc1

- IC50 [10]: 69.2 µM
- IC50 [2]: 90 µM
- IC50 [3]: 70 µM
SMILES: CC(C)(C)OC(=O)N1CCC[C@H]1COCCCCCCCC/C=C/c1ccc(-c2ccccc2)cc1
- IC50 [7]: > 100 µM

- IC50 [10]: 19.3 µM
- IC50 [2]: 60 µM
- IC50 [3]: 56.7 µM
SMILES: C(=C\c1ccc(Oc2ccccc2)cc1)/CCCCCCCCCOC[C@@H]1CCCN1
- IC50 [7]: 20.7 µM

- IC50 [2]: 63.3 µM
- IC50 [3]: 65 µM
SMILES: O=CN1CCC[C@H]1COCCCCCCCCC/C=C/c1ccc(Oc2ccccc2)cc1

- IC50 [1]: 36.5 µM
SMILES: CC(C)(C)OC(=O)N1C[C@H](O)C[C@H]1COCCCCCCCCC/C=C/c1ccc(-c2ccccc2)cc1

- IC50 [2]: 65 µM
- IC50 [3]: 50 µM
SMILES: CC(=O)N1CCC[C@H]1COCCCCCC/C=C/c1ccc(-c2ccccc2)cc1

- IC50 [10]: 7.4 µM
- IC50 [2]: 30 µM
- IC50 [3]: 49.7 µM
SMILES: C(=C\c1ccc(Oc2ccccc2)cc1)/CCCCCCOC[C@@H]1CCCN1
- IC50 [7]: 11.4 µM

- IC50 [10]: > 100 µM
- IC50 [2]: 90 µM
- IC50 [3]: > 100 µM
SMILES: CC(C)(C)OC(=O)N1CCC[C@H]1COCCCCCCCC/C=C/c1ccc(Oc2ccccc2)cc1
- IC50 [7]: > 100 µM

- IC50 [2]: 65 µM
- IC50 [3]: 73.3 µM
SMILES: CC(=O)N1CCC[C@H]1COCCCCCCCCC/C=C/c1ccc(Oc2ccccc2)cc1

- IC50 [2]: 60 µM
- IC50 [3]: 50 µM
SMILES: Cc1ccc([S+]([O-])N2CCC[C@H]2COCCCCCC/C=C/c2ccc(Oc3ccccc3)cc2)cc1 (some centres undefined)

- IC50 [2]: > 100 µM
- IC50 [3]: > 100 µM
SMILES: CC(C)(C)OC(=O)NCC(=O)N1CCC[C@H]1COCCCCCCCCC/C=C\c1ccc(Oc2ccccc2)cc1

- IC50 [2]: 63.3 µM
- IC50 [3]: 80 µM
SMILES: CC(C)(C)OC(=O)NCC(=O)N1CCC[C@H]1COCCCCCC/C=C/c1ccc(Oc2ccccc2)cc1

- IC50 [1]: 45.9 µM
SMILES: CC(C)(C)OC(=O)N1C[C@H](O)C[C@H]1COCCCCCCCCC/C=C/c1ccc(Oc2ccccc2)cc1

- IC50 [10]: 59.6 µM
- IC50 [2]: > 100 µM
SMILES: CC(C)(C)OC(=O)N1CCC[C@H]1COCCCCCCCCC/C=C/c1ccc(Oc2ccccc2)cc1
- IC50 [7]: > 100 µM

- IC50 [1]: 41 µM
SMILES: CC(C)(C)OC(=O)N1C[C@H](O)C[C@H]1COCCCCCCCC/C=C/c1ccc(Oc2ccccc2)cc1

- IC50 [1]: 41 µM
SMILES: CC(C)(C)OC(=O)N1C[C@H](O)C[C@H]1COCCCCCC/C=C/c1ccc(Oc2ccccc2)cc1

- IC50 [2]: 53.3 µM
- IC50 [3]: 46.7 µM
SMILES: O=CN1CCC[C@H]1COCCCCCC/C=C/c1ccc(Oc2ccccc2)cc1

- IC50 [10]: 8.5 µM
- IC50 [2]: 63.3 µM
- IC50 [3]: 63.3 µM
SMILES: CC(C)(C)OC(=O)N1CCC[C@H]1COCCCCCC/C=C/c1ccc(Oc2ccccc2)cc1
- IC50 [7]: 69.5 µM

- IC50 [10]: 18.3 µM
- IC50 [2]: 50 µM
- IC50 [3]: 43.3 µM
SMILES: C(=C\c1ccc(Oc2ccccc2)cc1)/CCCCCCCCOC[C@@H]1CCCN1
- IC50 [7]: 20.8 µM

- IC50 [2]: > 100 µM
SMILES: Cc1ccc([S+]([O-])N2CCC[C@H]2COCCCCCCCCC/C=C/c2ccc(Oc3ccccc3)cc2)cc1 (some centres undefined)

- IC50 [10]: 57.4 µM
- IC50 [2]: 80 µM
- IC50 [3]: 60 µM
SMILES: CC(C)(C)OC(=O)N1CCC[C@H]1COCCCCCCCCC/C=C/c1ccc(-c2ccccc2)cc1
- IC50 [7]: > 100 µM

- IC50 [2]: > 100 µM
- IC50 [3]: > 100 µM
SMILES: CC(C)(C)OC(=O)NCC(=O)N1CCC[C@H]1COCCCCCCCCC/C=C/c1ccc(-c2ccccc2)cc1

- IC50 [2]: 40 µM
- IC50 [3]: 60 µM
SMILES: CC(=O)N1CCC[C@H]1COCCCCCC/C=C/c1ccc(Oc2ccccc2)cc1

- IC50 [1]: 5.1 µM
SMILES: O[C@H]1CN[C@H](COCCCCCC/C=C/c2ccc(Oc3ccccc3)cc2)C1

- IC50 [10]: 23 µM
- IC50 [2]: > 100 µM
- IC50 [3]: > 100 µM
SMILES: CC(C)(C)OC(=O)N1CCC[C@H]1COCCCCCC/C=C/c1ccc(-c2ccccc2)cc1
- IC50 [7]: > 100 µM

- IC50 [2]: 56.7 µM
- IC50 [3]: 66.7 µM
SMILES: O=CN1CCC[C@H]1COCCCCCCCCC/C=C/c1ccc(-c2ccccc2)cc1

- IC50 [2]: 66.7 µM
- IC50 [3]: 66.7 µM
SMILES: CC(C)(C)OC(=O)NCC(=O)N1CCC[C@H]1COCCCCCC/C=C/c1ccc(-c2ccccc2)cc1
